The subject of experiment [1] is SNU-5 cells. As to the kind of experiment: 72-hour MTT experiment in SNU-5 gastric cancer cell line. The experiment is classed as cell-based. Conditions: Homo sapiens, SNU-5, MET-amplified cell line.
The test system of experiment [2] is KATO-III cell line. As to the kind of experiment: 72-hour MTT experiment in KATO-III gastric cancer cell line. The experiment is classed as cell-based. The settings on record: Homo sapiens, FGFR2-amplified cell line.

SMILES strings stand for the structures. Some results are limits rather than exact numbers.

As for `C[C@@H](Oc1cc(-c2cnn(C3CCNCC3)c2)cnc1N)c1c(Cl)ccc(F)c1Cl` [crizotinib], the IC50 was determined as 17.5 nM in experiment [1] and 22.6 nM in experiment [2].

For the molecule `COCc1c(-c2cc3cc(C)cc(OC)c3s2)c2c(N)ncnn2c1CN1CCNC(=O)C1` [rogaratinib], the IC50 was more than 40 nM in experiment [1] and 31 nM in experiment [2].

Values taken from patent US20240085426A1, “TRIPLE QUADRUPOLE-BASED MULTIPLE REACTION MONITORING FOR CLINICAL THERAPEUTIC RESPONSE PREDICTION IN CANCER” (NATIONAL CANCER CENTER, priority 2020, published 2024).
